US6358885B1, “Substituted phenylheterocyclic herbicides” (Mississippi State University, priority 1992, dated 2002)

Legend:
[1] = test system: barley; test: Test C preemergence/postemergence greenhouse plant response rating 0 to 100; type: in vivo, Hordeum vulgare; conditions: POSTEMERGENCE; for Plant response rating Barley Igri: 0 to 100 scale
Excerpt: (§1) The compounds evaluated in this test were formulated in a non-phytoxic solvent and applied to the soil surface before plant seedlings emerged (preemergence application), to water that covered the soil surface (flood application), and to plants that were in the one-to-four leaf stage (postemergence application). A sandy loam soil was used for the preemergence and postemergence tests, while a silt loam soil was used in the flood test. Water depth was approximately 2.5 cm for the flood test and was maintained at this level for the duration of the test. Plant species in the preemergence and postemergence tests consisted of barley (Hordeum vulgare), bedstraw (Galium aparine), blackgrass (Alopecurus myosuroides), chickweed (Stellaria media), corn (Zea mays), cotton (Gossypium hirsutum), crabgrass (Digitaria sanguinalis), downy brome (Bromus tectorum), giant foxtail (Setaria faberii), lambsquarters (Chenopodium album), morningglory (Ipomoea hederacea), pigweed ([…]), rape (Brassica napus), ryegrass (Lolium multiflorum), sorghum (Sorghum bicolor), soybean (Glycine max), speedwell (Veronica persica), sugar beet (Beta vulgaris), velvetleaf (Abutilon theophrasti), wheat (Triticum aestivum), wild buckwheat (Polygonum convolvulus), and wild oat (Avena fatua). All plant species were planted one day before application of the compound for the preemergence portion-of this test. Plantings of these species were adjusted to produce plants of appropriate size for the post-emergence portion of the test. […] All plant species were grown using normal greenhouse practices. Visual evaluations of injury expressed on treated plants, when compared to untreated controls, were recorded approximately fourteen to twenty one days after application of the test compound. […] A dash (-) response means no test result.

[2] = test system: blackgrass; test: as above; type: in vivo, Alopecurus myosuroides; conditions: POSTEMERGENCE; for Plant response rating, Blackgrass: 0 to 100 scale
Excerpt: as §1

[3] = test system: giant foxtail; test: Test B preemergence/postemergence greenhouse plant response rating 0 to 10; type: in vivo, Setaria faberii; conditions: 0 to 10 scale
Summary of the method: (§2)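 Both application timings were run together: seeds got compound preemergence, and established seedlings (two to eighteen cm) got it postemergence. Non-phytotoxic solvent carried the chemical. Ratings are visual, versus controls, at twelve to sixteen days.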

[4] = test system: cheatgrass; test: as above; type: in vivo, Bromus secalinus; conditions: 0 to 10 scale
Summary of the method: as §2

[5] = test system: soybean; test: as above; type: in vivo, Glycine max; conditions: 0 to 10 scale
Summary of the method: as §2

[6] = test system: giant foxtail; test: Test C preemergence/postemergence greenhouse plant response rating 0 to 100; type: in vivo, Setaria faberii; conditions: POSTEMERGENCE; for Plant response rating, Giant foxtail: 0 to 100 scale
Excerpt: as §1

[7] = test system: rape; test: as above; type: in vivo, Brassica napus; conditions: POSTEMERGENCE; for Plant response rating, Rape: 0 to 100 scale
Excerpt: as §1

[8] = test system: sorghum; test: as above; type: in vivo, Sorghum bicolor; conditions: POSTEMERGENCE; for Plant response rating, Sorghum: 0 to 100 scale
Excerpt: as §1

[9] = test system: lambsquarters; test: Test B preemergence/postemergence greenhouse plant response rating 0 to 10; type: in vivo, Chenopodium album; conditions: 0 to 10 scale
Summary of the method: as §2

[10] = test system: cocklebur; test: as above; type: in vivo, Xanthium pensylvanicum; conditions: 0 to 10 scale
Summary of the method: as §2

[11] = test system: soybean; test: Test C preemergence/postemergence greenhouse plant response rating 0 to 100; type: in vivo, Glycine max; conditions: POSTEMERGENCE; for Plant response rating, Soybean: 0 to 100 scale
Excerpt: as §1

[12] = test system: chickweed; test: as above; type: in vivo, Stellaria media; conditions: POSTEMERGENCE; for Plant response rating, Chickweed: 0 to 100 scale
Excerpt: as §1

[13] = test system: velvetleaf; test: Test B preemergence/postemergence greenhouse plant response rating 0 to 10; type: in vivo, Abutilon theophrasti; conditions: 0 to 10 scale
Summary of the method: as §2

[14] = test system: bedstraw; test: as above; type: in vivo, Galium aparine; conditions: 0 to 10 scale
Summary of the method: as §2

[15] = test system: morningglory; test: Test C preemergence/postemergence greenhouse plant response rating 0 to 100; type: in vivo, Ipomoea hederacea; conditions: POSTEMERGENCE; for Plant response rating, Morningglory: 0 to 100 scale
Excerpt: as §1

[16] = test system: barley; test: Test B preemergence/postemergence greenhouse plant response rating 0 to 10; type: in vivo, Hordeum vulgare; conditions: 0 to 10 scale
Summary of the method: as §2

[17] = test system: morningglory; test: as above; type: in vivo, Ipomoea hederacea; conditions: 0 to 10 scale
Summary of the method: as §2

[18] = test system: rice; test: Test C flood test plant response rating 0 to 100; type: in vivo, Oryza sativa; conditions: for Plant response rating (0 to 100), Rice Japonica: under POSTEMERGENCE head (flood test species); for Plant response rating Rice Japonica: flood test species listed under POSTEMERGENCE, 0 to 100 scale
Excerpt: as §1

## C=CCN1C(=O)COc2cc(F)c(-c3nn4c(c3Br)CCCC4)cc21 [Compound 41]
[1]; 62 g/ha
  Plant response rating Barley Igri: 50
[1]; 125 g/ha
  Plant response rating Barley Igri: 60
[1]; Rate 16 g/ha
  Plant response rating (0 to 100), Barley Igri: 30
[1]; Rate 31 g/ha
  Plant response rating (0 to 100), Barley Igri: 40
[2]; 62 g/ha
  Plant response rating, Blackgrass: 50
[2]; 125 g/ha
  Plant response rating, Blackgrass: 60
[2]; Rate 16 g/ha
  Plant response rating (0 to 100), Blackgrass: 40
[2]; Rate 31 g/ha
  Plant response rating (0 to 100), Blackgrass: 40
[3]; POSTEMERGENCE, Rate 50 g/ha
  Plant response rating, Giant foxtail: 4
[3]; PREEMERGENCE, Rate 50 g/ha
  Plant response rating, Giant foxtail: 1
[3]; Rate 200 g/ha, POSTEMERGENCE
  Plant response rating, Giant foxtail: 5
[3]; Rate 200 g/ha, PREEMERGENCE
  Plant response rating, Giant foxtail: 3
[4]; POSTEMERGENCE, Rate 50 g/ha
  Plant response rating, Cheatgrass: 3
[4]; POSTEMERGENCE, Rate 200 g/ha
  Plant response rating, Cheatgrass: 5
[4]; PREEMERGENCE, Rate 50 g/ha
  Plant response rating, Cheatgrass: 3
[4]; Rate 200 g/ha, PREEMERGENCE
  Plant response rating, Cheatgrass: 5
[5]; POSTEMERGENCE, Rate 50 g/ha
  Plant response rating, Soybean: 9
[5]; PREEMERGENCE, Rate 50 g/ha
  Plant response rating, Soybean: 0
[5]; Rate 200 g/ha, POSTEMERGENCE
  Plant response rating, Soybean: 10
[5]; Rate 200 g/ha, PREEMERGENCE
  Plant response rating, Soybean: 0
[6]; 62 g/ha
  Plant response rating, Giant foxtail: 30
[6]; 125 g/ha
  Plant response rating, Giant foxtail: 50
[6]; Rate 16 g/ha
  Plant response rating (0 to 100), Giant foxtail: 20
[6]; Rate 31 g/ha
  Plant response rating (0 to 100), Giant foxtail: 30
[7]; 62 g/ha
  Plant response rating, Rape: 100
[7]; 125 g/ha
  Plant response rating, Rape: 100
[7]; Rate 16 g/ha
  Plant response rating (0 to 100), Rape: 95
[7]; Rate 31 g/ha
  Plant response rating (0 to 100), Rape: 100
[8]; 62 g/ha
  Plant response rating, Sorghum: 40
[8]; 125 g/ha
  Plant response rating, Sorghum: 50
[8]; Rate 16 g/ha
  Plant response rating (0 to 100), Sorghum: 20
[8]; Rate 31 g/ha
  Plant response rating (0 to 100), Sorghum: 30
[9]; POSTEMERGENCE, Rate 50 g/ha
  Plant response rating, Lambsquarter: 10
[9]; PREEMERGENCE, Rate 50 g/ha
  Plant response rating, Lambsquarter: 10
[9]; Rate 200 g/ha, POSTEMERGENCE
  Plant response rating, Lambsquarter: 10
[9]; Rate 200 g/ha, PREEMERGENCE
  Plant response rating, Lambsquarter: 10
[10]; POSTEMERGENCE, Rate 50 g/ha
  Plant response rating, Cocklebur: 10
[10]; POSTEMERGENCE, Rate 200 g/ha
  Plant response rating, Cocklebur: 10
[10]; PREEMERGENCE, Rate 50 g/ha
  Plant response rating, Cocklebur: 2
[10]; Rate 200 g/ha, PREEMERGENCE
  Plant response rating, Cocklebur: 5
[11]; 62 g/ha
  Plant response rating, Soybean: 70
[11]; 125 g/ha
  Plant response rating, Soybean: 100
[11]; Rate 16 g/ha
  Plant response rating (0 to 100), Soybean: 60
[11]; Rate 31 g/ha
  Plant response rating (0 to 100), Soybean: 70
[12]; 62 g/ha
  Plant response rating, Chickweed: 100
[12]; 125 g/ha
  Plant response rating, Chickweed: 100
[12]; Rate 16 g/ha
  Plant response rating (0 to 100), Chickweed: 90
[12]; Rate 31 g/ha
  Plant response rating (0 to 100), Chickweed: 90
[13]; POSTEMERGENCE, Rate 50 g/ha
  Plant response rating, Velvetleaf: 10
[13]; PREEMERGENCE, Rate 50 g/ha
  Plant response rating, Velvetleaf: 2
[13]; Rate 200 g/ha, POSTEMERGENCE
  Plant response rating, Velvetleaf: 10
[13]; Rate 200 g/ha, PREEMERGENCE
  Plant response rating, Velvetleaf: 10
[14]; POSTEMERGENCE, Rate 50 g/ha
  Plant response rating, Bedstraw: 10
[14]; POSTEMERGENCE, Rate 200 g/ha
  Plant response rating, Bedstraw: 10
[14]; PREEMERGENCE, Rate 50 g/ha
  Plant response rating, Bedstraw: 2
[14]; Rate 200 g/ha, PREEMERGENCE
  Plant response rating, Bedstraw: 10
[15]; 62 g/ha
  Plant response rating, Morningglory: 100
[15]; 125 g/ha
  Plant response rating, Morningglory: 100
[15]; Rate 16 g/ha
  Plant response rating (0 to 100), Morningglory: 70
[15]; Rate 31 g/ha
  Plant response rating (0 to 100), Morningglory: 100
[16]; POSTEMERGENCE, Rate 50 g/ha
  Plant response rating, Barley: 5
[16]; POSTEMERGENCE, Rate 200 g/ha
  Plant response rating, Barley: 5
[16]; PREEMERGENCE, Rate 50 g/ha
  Plant response rating, Barley: 1
[16]; Rate 200 g/ha, PREEMERGENCE
  Plant response rating, Barley: 1
[17]; POSTEMERGENCE, Rate 50 g/ha
  Plant response rating, Morningglory: 9
[17]; PREEMERGENCE, Rate 50 g/ha
  Plant response rating, Morningglory: 0
[17]; Rate 200 g/ha, POSTEMERGENCE
  Plant response rating, Morningglory: 10
[17]; Rate 200 g/ha, PREEMERGENCE
  Plant response rating, Morningglory: 7
[18]; Rate 16 g/ha
  Plant response rating (0 to 100), Rice Japonica: 45
[18]; Rate 31 g/ha
  Plant response rating (0 to 100), Rice Japonica: 65
[18]; 62 g/ha
  Plant response rating Rice Japonica: 80
[18]; 125 g/ha
  Plant response rating Rice Japonica: 85
